Data published in US8932627B2, “Liposomal compositions of glucocorticoid and glucocorticoid derivatives” (Yissum Research Development Company of the Hebrew …, priority 2004, dated 2015).

Assays:
[1] = tested on: BCL-1 (mouse B cell lymphoid leukemia); assay: Survival of BCL-1 tumor bearing mice; type: in vivo, BALB/C mice
Experimental: In a further assay, survival of BCL-1 (mouse B cell lymphoid leukemia) tumor bearing mice was determined. […] Then, the mice were divided into groups and treated at days 5, 9, 12, 16, by i.v. injections, with the following treatment formulations: […]
Group I—5 mg/kg BW free-MPS;
Group II—25 mg/kg BW free-MPS;
Group III—5 mg/kg BW SSL-MPS;
Group IV—50 mg/kg BW SSL-MPS.

[2] = Precipitation of MPS by calcium ion (Ca-acetate solution); type: physicochemical; conditions: pH 4.5; 600 mOsm Ca-acetate, 63° C., 5 mg/ml MPS, 40 minutes
Experimental: To 600 mOsm Ca-acetate solution at 63° C. and at different pH points MPS was added at final concentration of 5 mg/ml, then mixed solution was incubated for 40 minutes after which the solution was centrifuged and the supernatant was analyzed using HPLC.

[3] = tested on: J6456 lymphoma cells (mouse T-cell lymphoma); assay: Survival of mice injected i.p. with J6456 lymphoma cells; type: in vivo, BALB/C mice; conditions: free-MPS days 5, 9, 12, SSL-MPS days 5, 9, 12, 16
Experimental: At day 1 of the experiment BALB/C mice were injected i.p. with 1 million J6456 lymphoma cells (mouse T-cell lymphoma) then mice were divided into groups and treated by i.v. injections with free-MPS or SSL-MPS according to the following treatment schedule (Table 9).

[4] = State of aggregation (turbidity, light scattering at 90°) of MPS as function of pH; type: physicochemical
Experimental: Aggregation of MPS was determined from the change in turbidity measured as intensity of light scattered at 90° to excitation beam using a spectrofluormeter under conditions that MPS lack absorbance (excitation and emission at the same wavelength Ex=600 nm Em=600 nm). There is a large increase in the light scattered by MPS solution/dispersion due to formation of aggregates.
The intensity of scattered light (at 90° to the excitation), also defined as turbidity is proportional to concentration and to the size of the aggregates. [Zuidam, N. J. and Barenholz, Y., Biochim. Biophys. Acta 1368:115-128 (1998)]. The state of aggregation of MPS was tested in the following manner: To quartz cuvette MPS (2 ml) at concentration of ˜6.5 mg/ml MPS was added. The solution was tittered with HCl (1.756M) and light scattering using excitation and emission at (both at 600 nm with attenuation of 1%) and pH of the solution was monitored.

BCL-1 lymphoma cells = assay: Sensitivity of BCL-1 cell line to MPS; type: cell-based, mouse
[5] = 26° C.; MPS 0.785-30 mM
Experimental: Surface tension was measured using μtrouge S (Kibron Inc., Helsinki Finland). A solution containing GC derivative (300 μL) was placed in the well after calibration and zeroing of the sensor using pure water and air. The measurement was performed at 26° C.

[6] = tested on: Experimental Autoimmune Encephalomyelitis (EAE); assay: Treatment of acute EAE (PLP 139-151 induced) with SSL-MPS, single injection; type: in vivo, SJL female mice; conditions: 50 mg/kg BW, 1 injection day 14, follow up 3 weeks
[7] = tested on: Experimental Autoimmune Encephalomyelitis (EAE); assay: Treatment of severe disease burden in acute EAE (PLP induced); type: in vivo, SJL female mice
Experimental: In order to boost the immune system Pertussis Toxin (PT) 150 ng were injected intraperitoneally (i.p.) to the mice on the first day and 48 hours later.
Each mouse was examined daily for clinical signs of EAE using the following Table 4:
For mice showing a severe disease burden (determined by summing the scores of each of the 10 mice in the group and calculating the mean score per day, according to the following equation: Σtotal score of each mouse per day/number of mice in the group) a different treatment was applied. Specifically, after immunization as described above, mice were treated with 50 mg/kg BW SSL-MPS (days 10, 14, 18) or with free-MPS 50 mg/kg BW (days 10, 14, 18) or dextrose 5% (days 10, 14, 18). For each group, the incidence, MMS=mean maximal score; MDD=mean disease duration (days); MDO=mean day of onset and mean score were determined Table 7. Further, for each group the mean clinical scores at each time point was determined (FIG. 6B) as well as the survival curve (FIG. 6A).

[8] = ex vivo stability, after 24 hours, passively loaded liposomes; cited from earlier work

C[C@H]1C[C@@H]2[C@H]([C@@H](O)C[C@@]3(C)[C@H]2CC[C@]3(O)C(=O)COC(=O)CCC(=O)[O-])[C@@]2(C)C=CC(=O)C=C12.[Na+] [MPS, methylprednisolone sodium hemisuccinate]
Survival median ([1]; 5 mg/kg BW i.v. days 5, 9, 12, 16): 19
Survival median ([1]; 25 mg/kg BW i.v. days 5, 9, 12, 16): 19
% MPS precipitated [2]: 97%
Median survival ([3]; 15 mg/kg BW i.v.): 16
Median survival ([3]; 50 mg/kg BW i.v.): 16
state of aggregation (turbidity) ([4]; acidic pH, FIG. 1A): it aggregates
state of aggregation (turbidity) ([4]; pH 7.2, FIG. 1A): non-aggregated water soluble
sensitivity of the cell line (BCL-1 lymphoma cells; BCL-1): highly sensitive
IC50 (BCL-1 lymphoma cells; BCL-1 lymphoma cells (B cell line)): in the nmolar range
surface activity (surface tension) [5]: surface active at all concentrations used
Incidence [6]: 7/9
MDD (mean disease duration) [6]: 10.9 ± 2.7 days
MDO (mean day of onset) [6]: 16.7 ± 1.83
MMS (mean maximal score) [6]: 2.35 ± 0.39
Mean Score [6]: 0.861 ± 0.105
#dead ([7]; 50 mg/kg BW days 10, 14, 18): 3
Incidence ([7]; 50 mg/kg BW days 10, 14, 18): 9/9
MDD (mean disease duration) ([7]; 50 mg/kg BW days 10, 14, 18): 10.11 ± 1.92 days
MDO (mean day of onset) ([7]; 50 mg/kg BW days 10, 14, 18): 12.67 ± 0.65
MMS (mean maximal score) ([7]; 50 mg/kg BW days 10, 14, 18): 4.44 ± 0.50
Mean Score ([7]; 50 mg/kg BW days 10, 14, 18): 2.62 ± 0.208
survival / mortality ([7]; 50 mg/kg BW days 10, 14, 18, FIG. 6A): there was mortality
mean clinical score at day 19 ([7]; 50 mg/kg BW days 10, 14, 18, FIG. 6B): ~3

triamcinolone acetonide phosphate
acidic corticosteroid retained by the liposome [8]: more than 75%
